Test results from patent US4497802A, “N-Acyl glycopeptide derivatives” (Eli Lilly and Company, priority 1983, dated 1985).

Legend:
[1] = system: Haemophilus influenzae 76; test: MIC, standard agar-dilution assay; assay type: cell-based; conditions: Haemophilus influenzae 76, ampicillin-resistant strain
[2] = system: Staphylococcus aureus S13E; assay type: cell-based; conditions: agar dilution
[3] = system: Streptococcus pneumoniae Park I; assay type: cell-based; conditions: agar dilution
[4] = system: Staphylococcus epidermidis EPI1; assay type: cell-based; conditions: Staphylococcus epidermidis EPI1; agar dilution
[5] = system: Staphylococcus aureus; test: ED50 in experimentally infected mice; assay type: in vivo; conditions: mice infected with Staphylococcus aureus; administered subcutaneously 1 and 4 hours postinfection
[6] = system: Streptococcus Group 9960; test: MIC, standard agar-dilution assay; assay type: cell-based; conditions: Streptococcus Group 9960; agar dilution
[7] = system: Staphylococcus aureus X1.1; test: MIC, standard agar-dilution assay; assay type: cell-based; conditions: Staphylococcus aureus X1.1; agar dilution
[8] = system: Streptococcus Group D X66; test: MIC, standard agar-dilution assay; assay type: cell-based; conditions: Streptococcus Group D X66; agar dilution
[9] = system: Streptococcus pyogenes C203; test: MIC, standard agar-dilution assay; assay type: cell-based; conditions: Streptococcus pyogenes C203; agar dilution
[10] = system: Staphylococcus aureus V41; test: MIC, standard agar-dilution assay; assay type: cell-based; conditions: Staphylococcus aureus V41, penicillin-resistant strain; agar dilution
[11] = system: Staphylococcus aureus X400; test: MIC, standard agar-dilution assay; assay type: cell-based; conditions: Staphylococcus aureus X400, methicillin-resistant strain
[12] = system: Staphylococcus epidermidis EPI2; test: MIC, standard agar-dilution assay; assay type: cell-based
[13] = system: Haemophilus influenzae C.L.; test: MIC, standard agar-dilution assay; assay type: cell-based; conditions: ampicillin-sensitive strain
[14] = system: Streptococcus pneumoniae; test: ED50 in experimentally infected mice; assay type: in vivo; conditions: mice infected with Streptococcus pneumoniae; administered subcutaneously 1 and 4 hours postinfection
Method: (§1) Some of the derivatives of this invention have shown in vivo antimicrobial activity against experimentally-induced infections in laboratory animals. When two doses of test compound were administered to experimentally infected mice, the activity observed was measured as an ED50 value [effective dose in mg/kg to protect 50% of the test animals: see Warren Wick, et al., J. Bacteriol. 81, 233-235 (1961)].
(§2) ^a mg/kg × 2; administered subcutaneously 1 and 4 hours

[15] = system: Streptococcus pyogenes; test: ED50 in experimentally infected mice; assay type: in vivo; conditions: mice infected with Streptococcus pyogenes; administered subcutaneously 1 and 4 hours postinfection
Method: as §1, §2

Substance	MIC [1]	MIC [2] [µg/mL]	MIC [3] [µg/mL]	MIC [4] [µg/mL]	ED50 [5] [mg/kg × 2]	MIC [6] [µg/mL]	MIC [7] [µg/mL]	MIC [8] [µg/mL]	MIC [9] [µg/mL]	MIC [10] [µg/mL]	MIC [11] [µg/mL]	MIC [12] [µg/mL]	MIC [13]	ED50 [14] [mg/kg × 2]	ED50 [15] [mg/kg × 2]
N--(3,5-dichlorobenzoyl)A41030A [Example 22]	8 µg/mL	0.25	0.5	0.125	< 0.31	0.5	0.125	0.5	0.5	0.125	0.25	0.25	16 µg/mL	41	> 10
N--[4-(N,N--dimethylamino)benzoyl]A41030A [Example 18]	64 µg/mL	0.25	0.5	0.25	0.46	2	0.25	1	1	0.5	0.5	0.5	-- (Compound not active at less than 128 mcg/ml)	> 10	> 10
N--(nonanoyl)A47934 [Example 25]	8 µg/mL	0.125	0.25	0.06	< 0.31	0.25	0.125	0.25	0.5	0.125	0.25	0.125	8 µg/mL	> 10	> 10
N--[p-(octyloxy)benzoyl]A47934 [Example 26]	4 µg/mL	0.25	0.5	0.125	3.6	1	0.125	0.5	0.5	0.25	0.5	0.5	8 µg/mL	> 10	> 10
N--(lauroyl)A41030A [Example 20]	32 µg/mL	0.5	1	0.5	0.6	0.5	0.5	0.5	1	0.5	1	0.5	32 µg/mL	> 10	> 10
N--(nonanoyl)A41030A [Example 19]	16 µg/mL	0.25	0.5	0.125	< 0.31	0.25	0.125	0.25	0.5	0.25	0.25	0.25	32 µg/mL	> 10	> 10
N--(L-phenylalanyl)A41030A [Example 17]	16 µg/mL	0.125	0.125	0.125	0.08	0.125	0.125	0.5	0.125	0.125	0.125	0.125	8 µg/mL	8.52	> 10
N--[p-(octyloxy)benzoyl]A41030A [Example 21]	-- (Compound not active at less than 128 mcg/ml)	2	2	0.5	2.19	1	1	2	2	1	2	1	-- (Compound not active at less than 128 mcg/ml)	> 10	> 10
